Species on record: Rattus norvegicus
Assay: Open TG-GATES - Regimen: Single
Format: toxicity, organism-based, Sprague-Dawley
Set-up: regimen Single, gender Male, age 6 weeks
Conditions: in vivo, ip, 24 h, route intraperitoneal injection; for Bas / Eos / Hb / Ht / Lym / MCH / MCHC / MCV / Mono / Neu / Plat / RBC / Ret / WBC: tissue Blood; for KIDNEY_L / KIDNEY_R / KIDNEY_TOTAL: tissue Kidney; for LIVER: tissue Liver; for A/G / ALP / ALT / AST / BUN / CRE / Ca / Cl / DBIL / GLC / IP / K / LDH / Na / PL / RALB / TBIL / TC / TG / TP / gamma-GTP: tissue Plasma

CN(N=O)C(N)=O [N-METHYL-N-NITROSUREA]
TERMINAL_BW (0 mg/kg, dose level Control): 240.3 g
Bas (0 mg/kg, dose level Control): 0%
Eos (0 mg/kg, dose level Control): 0.8%
Hb (0 mg/kg, dose level Control): 12.5 g/dL
Ht (0 mg/kg, dose level Control): 38.8%
Lym (0 mg/kg, dose level Control): 78.8%
MCH (0 mg/kg, dose level Control): 19.9 pg
MCHC (0 mg/kg, dose level Control): 32.4%
MCV (0 mg/kg, dose level Control): 61.6 fL
Mono (0 mg/kg, dose level Control): 2.4%
Neu (0 mg/kg, dose level Control): 17.6%
Plat (0 mg/kg, dose level Control): 125.4 x10_4/uL
RBC (0 mg/kg, dose level Control): 629.8 x10_4/ul
Ret (0 mg/kg, dose level Control): 8.1%
WBC (0 mg/kg, dose level Control): 104.4 x10_2/uL
KIDNEY_L (0 mg/kg, dose level Control): 1 g
KIDNEY_R (0 mg/kg, dose level Control): 1 g
KIDNEY_TOTAL (0 mg/kg, dose level Control): 2 g
LIVER (0 mg/kg, dose level Control): 11.1 g
A/G (0 mg/kg, dose level Control): 1
ALP (0 mg/kg, dose level Control): 1557.2 IU/L
ALT (0 mg/kg, dose level Control): 41.2 IU/L
AST (0 mg/kg, dose level Control): 72.8 IU/L
BUN (0 mg/kg, dose level Control): 17.5 mg/dL
CRE (0 mg/kg, dose level Control): 0.2 mg/dL
Ca (0 mg/kg, dose level Control): 10.7 mg/dL
Cl (0 mg/kg, dose level Control): 102.9 meq/L
DBIL (0 mg/kg, dose level Control): 0 mg/dL
GLC (0 mg/kg, dose level Control): 198 mg/dL
IP (0 mg/kg, dose level Control): 7.1 mg/dL
K (0 mg/kg, dose level Control): 4.2 meq/L
LDH (0 mg/kg, dose level Control): 141.2 IU/L
Na (0 mg/kg, dose level Control): 141.4 meq/L
PL (0 mg/kg, dose level Control): 160 mg/dL
RALB (0 mg/kg, dose level Control): 2.7 g/dL
TBIL (0 mg/kg, dose level Control): 0.004 mg/dL
TC (0 mg/kg, dose level Control): 79.4 mg/dL
TG (0 mg/kg, dose level Control): 135 mg/dL
TP (0 mg/kg, dose level Control): 5.6 g/dL
gamma-GTP (0 mg/kg, dose level Control): 1 IU/L
TERMINAL_BW (10 mg/kg, dose level Low): 233.4 g
Bas (10 mg/kg, dose level Low): 0%
Eos (10 mg/kg, dose level Low): 0.2%
Hb (10 mg/kg, dose level Low): 13 g/dL
Ht (10 mg/kg, dose level Low): 39.7%
Lym (10 mg/kg, dose level Low): 90.2%
MCH (10 mg/kg, dose level Low): 19.9 pg
MCHC (10 mg/kg, dose level Low): 32.8%
MCV (10 mg/kg, dose level Low): 60.7 fL
Mono (10 mg/kg, dose level Low): 2.6%
Neu (10 mg/kg, dose level Low): 5.6%
Plat (10 mg/kg, dose level Low): 126.2 x10_4/uL
RBC (10 mg/kg, dose level Low): 653 x10_4/ul
Ret (10 mg/kg, dose level Low): 5.7%
WBC (10 mg/kg, dose level Low): 66.8 x10_2/uL
KIDNEY_L (10 mg/kg, dose level Low): 1 g
KIDNEY_R (10 mg/kg, dose level Low): 1 g
KIDNEY_TOTAL (10 mg/kg, dose level Low): 2.1 g
LIVER (10 mg/kg, dose level Low): 10.9 g
A/G (10 mg/kg, dose level Low): 1
ALP (10 mg/kg, dose level Low): 1481.4 IU/L
ALT (10 mg/kg, dose level Low): 33.4 IU/L
AST (10 mg/kg, dose level Low): 65.8 IU/L
BUN (10 mg/kg, dose level Low): 16.9 mg/dL
CRE (10 mg/kg, dose level Low): 0.1 mg/dL
Ca (10 mg/kg, dose level Low): 10.6 mg/dL
Cl (10 mg/kg, dose level Low): 102.9 meq/L
DBIL (10 mg/kg, dose level Low): 0.004 mg/dL
GLC (10 mg/kg, dose level Low): 198 mg/dL
IP (10 mg/kg, dose level Low): 7.2 mg/dL
K (10 mg/kg, dose level Low): 4.1 meq/L
LDH (10 mg/kg, dose level Low): 138.4 IU/L
Na (10 mg/kg, dose level Low): 141 meq/L
PL (10 mg/kg, dose level Low): 167.6 mg/dL
RALB (10 mg/kg, dose level Low): 2.9 g/dL
TBIL (10 mg/kg, dose level Low): 0.01 mg/dL
TC (10 mg/kg, dose level Low): 85.6 mg/dL
TG (10 mg/kg, dose level Low): 118.8 mg/dL
TP (10 mg/kg, dose level Low): 5.7 g/dL
gamma-GTP (10 mg/kg, dose level Low): 0.8 IU/L
TERMINAL_BW (30 mg/kg, dose level Middle): 227.7 g
Bas (30 mg/kg, dose level Middle): 0%
Eos (30 mg/kg, dose level Middle): 0%
Hb (30 mg/kg, dose level Middle): 11.8 g/dL
Ht (30 mg/kg, dose level Middle): 35.8%
Lym (30 mg/kg, dose level Middle): 80.2%
MCH (30 mg/kg, dose level Middle): 20.8 pg
MCHC (30 mg/kg, dose level Middle): 32.9%
MCV (30 mg/kg, dose level Middle): 63.3 fL
Mono (30 mg/kg, dose level Middle): 3.2%
Neu (30 mg/kg, dose level Middle): 15.4%
Plat (30 mg/kg, dose level Middle): 127.5 x10_4/uL
RBC (30 mg/kg, dose level Middle): 566 x10_4/ul
Ret (30 mg/kg, dose level Middle): 4.9%
WBC (30 mg/kg, dose level Middle): 34.5 x10_2/uL
KIDNEY_L (30 mg/kg, dose level Middle): 1 g
KIDNEY_R (30 mg/kg, dose level Middle): 1 g
KIDNEY_TOTAL (30 mg/kg, dose level Middle): 2 g
LIVER (30 mg/kg, dose level Middle): 9.9 g
A/G (30 mg/kg, dose level Middle): 0.9
ALP (30 mg/kg, dose level Middle): 1270.8 IU/L
ALT (30 mg/kg, dose level Middle): 35.2 IU/L
AST (30 mg/kg, dose level Middle): 70 IU/L
BUN (30 mg/kg, dose level Middle): 17.6 mg/dL
CRE (30 mg/kg, dose level Middle): 0.1 mg/dL
Ca (30 mg/kg, dose level Middle): 10.4 mg/dL
Cl (30 mg/kg, dose level Middle): 103.6 meq/L
DBIL (30 mg/kg, dose level Middle): 0.01 mg/dL
GLC (30 mg/kg, dose level Middle): 196 mg/dL
IP (30 mg/kg, dose level Middle): 8.3 mg/dL
K (30 mg/kg, dose level Middle): 3.9 meq/L
LDH (30 mg/kg, dose level Middle): 151 IU/L
Na (30 mg/kg, dose level Middle): 141.8 meq/L
PL (30 mg/kg, dose level Middle): 150.4 mg/dL
RALB (30 mg/kg, dose level Middle): 2.7 g/dL
TBIL (30 mg/kg, dose level Middle): 0.022 mg/dL
TC (30 mg/kg, dose level Middle): 82.6 mg/dL
TG (30 mg/kg, dose level Middle): 51.7 mg/dL
TP (30 mg/kg, dose level Middle): 5.6 g/dL
gamma-GTP (30 mg/kg, dose level Middle): 1 IU/L
TERMINAL_BW (100 mg/kg, dose level High): 207.9 g
Bas (100 mg/kg, dose level High): 0%
Eos (100 mg/kg, dose level High): 0%
Hb (100 mg/kg, dose level High): 13.8 g/dL
Ht (100 mg/kg, dose level High): 41.1%
Lym (100 mg/kg, dose level High): 14.2%
MCH (100 mg/kg, dose level High): 20.5 pg
MCHC (100 mg/kg, dose level High): 33.5%
MCV (100 mg/kg, dose level High): 61.1 fL
Mono (100 mg/kg, dose level High): 3.2%
Neu (100 mg/kg, dose level High): 82%
Plat (100 mg/kg, dose level High): 117.5 x10_4/uL
RBC (100 mg/kg, dose level High): 673.6 x10_4/ul
Ret (100 mg/kg, dose level High): 4.4%
WBC (100 mg/kg, dose level High): 13.1 x10_2/uL
KIDNEY_L (100 mg/kg, dose level High): 1 g
KIDNEY_R (100 mg/kg, dose level High): 1 g
KIDNEY_TOTAL (100 mg/kg, dose level High): 1.9 g
LIVER (100 mg/kg, dose level High): 9.7 g
A/G (100 mg/kg, dose level High): 1
ALP (100 mg/kg, dose level High): 1181 IU/L
ALT (100 mg/kg, dose level High): 28.6 IU/L
AST (100 mg/kg, dose level High): 113 IU/L
BUN (100 mg/kg, dose level High): 16.2 mg/dL
CRE (100 mg/kg, dose level High): 0.1 mg/dL
Ca (100 mg/kg, dose level High): 10.3 mg/dL
Cl (100 mg/kg, dose level High): 101.6 meq/L
DBIL (100 mg/kg, dose level High): 0.01 mg/dL
GLC (100 mg/kg, dose level High): 197.8 mg/dL
IP (100 mg/kg, dose level High): 8.2 mg/dL
K (100 mg/kg, dose level High): 3.6 meq/L
LDH (100 mg/kg, dose level High): 166.4 IU/L
Na (100 mg/kg, dose level High): 142.3 meq/L
PL (100 mg/kg, dose level High): 150.4 mg/dL
RALB (100 mg/kg, dose level High): 2.7 g/dL
TBIL (100 mg/kg, dose level High): 0.016 mg/dL
TC (100 mg/kg, dose level High): 75.8 mg/dL
TG (100 mg/kg, dose level High): 59.3 mg/dL
TP (100 mg/kg, dose level High): 5.4 g/dL
gamma-GTP (100 mg/kg, dose level High): 0.7 IU/L

From ChEMBL document CHEMBL3885861, “Open TG-GATES”
